Source: US11000033B2, “Ketone or oxime compound, and herbicide” (NISSAN CHEMICAL CORPORATION, priority 2014, dated 2021)

Legend:
Assay type in all cases: in vivo
rice plant = test: Test Example 5: effect on crop by foliage application, plastic box (symbol b); conditions: 320 g/ha, 3 weeks after application
How it was run: (§1)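 A greenhouse held between 25° C. and 30° C. was used to grow plants sown spot-wise, beneath ~1.5 cm of soil, in boxes of sterilized diluvial soil.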

[1] = test system: Echinochloa crus-galli var. crus-galli; test: Test Example 4: herbicidal effect by soil treatment (symbol H)
How it was run: (§2)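 Seeds were sown in sterilized diluvial soil, covered with about 1.5 cm of soil, and the soil surface was sprayed with a water-diluted emulsion of the compound at a predetermined rate. Plants grew in a greenhouse at 25° C. to 30° C.; effects were scored visually 3 weeks after application.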

Chenopodium album = test: Test Example 4: herbicidal effect by soil treatment (symbol O); conditions: 320 g/ha
How it was run: as §2

Lolium multiflorum Lam. = test: Test Example 5: herbicidal effect by foliage application, plastic box (symbol K); conditions: 320 g/ha, 3 weeks after application
How it was run: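 Visual herbicidal score, taken three weeks post-application, of seedlings sprayed on the foliage with water-diluted emulsion at a predetermined amount; plants were 14 days old, greenhouse-raised at 25° C. to 30° C.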

Avena fatua = test: Test Example 4: herbicidal effect by soil treatment (symbol I)
How it was run: as §2

rapeseed = test: Test Example 4: effect on crop by soil treatment (symbol g); conditions: for g: rapeseed, effect grade on crop: 320 g/ha
How it was run: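 Seeds were sown in spots on sterilized diluvial soil in a plastic box and covered with about 1.5 cm of soil. Plants were then grown in a greenhouse at 25° C. to 30° C.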

Digitaria ciliaris = test: Test Example 4: herbicidal effect by soil treatment (symbol F)
How it was run: as §2

corn [2] = test: Test Example 5: effect on crop by foliage application, plastic box (symbol c); conditions: 320 g/ha, 3 weeks after application
How it was run: as §1

Monochoria vaginalis [3] = test: Test Example 1: herbicidal activity, application before weed generation in submerged conditions (symbol C); conditions: application herbicide amount 320 g/ha
How it was run: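 0–5 visual score, 3 wk post-application. Submerged pots, alluvial soil, water 4 cm; seeds sown mixed, rice at 2.5 leaves transplanted. Emulsion diluted to predetermined dose, applied to water surface at sowing. 25–30 °C greenhouse.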

corn [4] = test: Test Example 4: effect on crop by soil treatment (symbol c); conditions: for c: corn, effect grade on crop: 320 g/ha
How it was run: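 Greenhouse culture at 25° C. to 30° C. followed sowing of seed in spots on sterilized diluvial soil with a soil cover close to 1.5 cm thick.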

Scirpus juncoides = test: Test Example 2: herbicidal activity, application during weed generation in submerged conditions (symbol B); conditions: Table 23; application herbicide amount 320 g/ha; grade 0-5 by criteria of Test Example 1
How it was run: (§3)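 Each pot contained alluvial soil under 4 cm of water with seeds of all three weeds sown together. Following growth at 25° C. to 30° C. to the one- to two-leaf stage, the floodwater received diluted emulsion at a predetermined amount; visual assessment followed at 3 weeks.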

soybean = test: Test Example 5: effect on crop by foliage application, plastic box (symbol d); conditions: 320 g/ha, 3 weeks after application
How it was run: as §1

Monochoria vaginalis [5] = test: Test Example 2: herbicidal activity, application during weed generation in submerged conditions (symbol C); conditions: Table 23; application herbicide amount 320 g/ha; grade 0-5 by criteria of Test Example 1
How it was run: as §3

Galium spurium = test: Test Example 4: herbicidal effect by soil treatment (symbol Q)
How it was run: as §2

[6] = test system: Echinochloa oryzacola Vasing.; test: Test Example 2: herbicidal activity, application during weed generation in submerged conditions (symbol A); conditions: Table 23; application herbicide amount 320 g/ha; grade 0-5 by criteria of Test Example 1
How it was run: as §3

Abutilon theophrasti = test: Test Example 4: herbicidal effect by soil treatment (symbol M); conditions: application herbicide amount 320 g/ha
How it was run: as §2

Apera spica-venti = test: Test Example 4: herbicidal effect by soil treatment (symbol L); conditions: application herbicide amount 320 g/ha
How it was run: as §2

[7] = application herbicide amount 320 g/ha

CON=C(C)CC1CC(OC(=O)C(C)Oc2ccc(Oc3ccc(Cl)cc3Cl)cc2)=C(c2c(C)cc(C)cc2C)C1=O (stereo not drawn) [1-163]
b: directly sowed rice plant, effect on crop grade (rice plant): 5 (Herbicidal ratio of 90% or more (almost completely withered))
H: Echinochloa crus-galli var. crus-galli, herbicidal effect grade ([1]; 320 g/ha): 5 (Herbicidal ratio of 90% or more (almost completely withered))
O: Chenopodium album, herbicidal effect grade (Chenopodium album): 0 (Herbicidal ratio of 5% or lower (almost no effect))
K: Lolium multiflorum Lam., herbicidal effect grade (Lolium multiflorum Lam.): 5 (Herbicidal ratio of 90% or more (almost completely withered))
I: Avena fatua, herbicidal effect grade (Avena fatua; 320 g/ha): 3 (Herbicidal ratio of 40% or higher and lower than 70%)
g: rapeseed, effect grade on crop (rapeseed): 4 (Herbicidal ratio of 70% or higher and lower than 90%)
F: Digitaria ciliaris, herbicidal effect grade (Digitaria ciliaris; 320 g/ha): 5 (Herbicidal ratio of 90% or more (almost completely withered))
c: corn, effect on crop grade (corn [2]): 4 (Herbicidal ratio of 70% or higher and lower than 90%)
Herbicidal effect grade, C: Monochoria vaginalis (Monochoria vaginalis [3]): 0 (Herbicidal ratio of 5% or lower (almost no effect))
c: corn, effect grade on crop (corn [4]): 1 (Herbicidal ratio of 5% or higher and lower than 20%)
Herbicidal effect grade, B: Scirpus juncoides (Scirpus juncoides): 4 (Herbicidal ratio of 70% or higher and lower than 90%)
d: soybean, effect on crop grade (soybean): 2 (Herbicidal ratio of 20% or higher and lower than 40%)
Herbicidal effect grade, C: Monochoria vaginalis (Monochoria vaginalis [5]): 3 (Herbicidal ratio of 40% or higher and lower than 70%)
Q: Galium spurium, herbicidal effect grade (Galium spurium; 320 g/ha): 0 (Herbicidal ratio of 5% or lower (almost no effect))
Herbicidal effect grade, A: Echinochloa oryzacola Vasing. [6]: 5 (Herbicidal ratio of 90% or more (almost completely withered))

CCC(=O)CCC1CC(O)=C(c2c(C)cc(C)cc2C)C1=O (stereo not drawn) [5-001]
M: Abutilon theophrasti, herbicidal effect grade (Abutilon theophrasti): 0 (Herbicidal ratio of 5% or lower (almost no effect))
b: directly sowed rice plant, effect on crop grade (rice plant): 4 (Herbicidal ratio of 70% or higher and lower than 90%)
H: Echinochloa crus-galli var. crus-galli, herbicidal effect grade [1, 7]: 1 (Herbicidal ratio of 5% or higher and lower than 20%)
K: Lolium multiflorum Lam., herbicidal effect grade (Lolium multiflorum Lam.): 5 (Herbicidal ratio of 90% or more (almost completely withered))
I: Avena fatua, herbicidal effect grade (Avena fatua; [7]): 0 (Herbicidal ratio of 5% or lower (almost no effect))
L: Apera spica-venti, herbicidal effect grade (Apera spica-venti): 5 (Herbicidal ratio of 90% or more (almost completely withered))
g: rapeseed, effect on crop grade (rapeseed; [7]): 0 (Herbicidal ratio of 5% or lower (almost no effect))
F: Digitaria ciliaris, herbicidal effect grade (Digitaria ciliaris; [7]): 4 (Herbicidal ratio of 70% or higher and lower than 90%)
c: corn, effect on crop grade (corn [2]): 2 (Herbicidal ratio of 20% or higher and lower than 40%)
Herbicidal effect grade, C: Monochoria vaginalis (Monochoria vaginalis [3]): 0 (Herbicidal ratio of 5% or lower (almost no effect))
c: corn, effect on crop grade (corn [4]; [7]): 0 (Herbicidal ratio of 5% or lower (almost no effect))
Herbicidal effect grade, B: Scirpus juncoides (Scirpus juncoides): 0 (Herbicidal ratio of 5% or lower (almost no effect))
d: soybean, effect on crop grade (soybean): 0 (Herbicidal ratio of 5% or lower (almost no effect))
Herbicidal effect grade, C: Monochoria vaginalis (Monochoria vaginalis [5]): 0 (Herbicidal ratio of 5% or lower (almost no effect))
Q: Galium spurium, herbicidal effect grade (Galium spurium; [7]): 0 (Herbicidal ratio of 5% or lower (almost no effect))
Herbicidal effect grade, A: Echinochloa oryzacola Vasing. [6]: 0 (Herbicidal ratio of 5% or lower (almost no effect))

CON=C(C)CC1CC(OC(=O)c2ccccc2)=C(c2c(C)cc(C)cc2C)C1=O (stereo not drawn) [1-010]
M (Abutilon theophrasti) herbicidal effect grade (Abutilon theophrasti): 5 (Herbicidal ratio of 90% or more (almost completely withered))
b: directly sowed rice plant, effect on crop grade (rice plant): 5 (Herbicidal ratio of 90% or more (almost completely withered))
H (Echinochloa crus-galli var. crus-galli) herbicidal effect grade [1, 7]: 5 (Herbicidal ratio of 90% or more (almost completely withered))
K: Lolium multiflorum Lam., herbicidal effect grade (Lolium multiflorum Lam.): 5 (Herbicidal ratio of 90% or more (almost completely withered))
I (Avena fatua) herbicidal effect grade (Avena fatua; [7]): 5 (Herbicidal ratio of 90% or more (almost completely withered))
L (Apera spica-venti) herbicidal effect grade (Apera spica-venti): 5 (Herbicidal ratio of 90% or more (almost completely withered))
g (rapeseed) effect on crop grade (rapeseed; [7]): 4 (Herbicidal ratio of 70% or higher and lower than 90%)
F (Digitaria ciliaris) herbicidal effect grade (Digitaria ciliaris; [7]): 5 (Herbicidal ratio of 90% or more (almost completely withered))
c: corn, effect on crop grade (corn [2]): 5 (Herbicidal ratio of 90% or more (almost completely withered))
Herbicidal effect grade, C: Monochoria vaginalis (Monochoria vaginalis [3]): 2 (Herbicidal ratio of 20% or higher and lower than 40%)
c (corn) effect on crop grade (corn [4]; [7]): 4 (Herbicidal ratio of 70% or higher and lower than 90%)
Herbicidal effect grade, B: Scirpus juncoides (Scirpus juncoides): 5 (Herbicidal ratio of 90% or more (almost completely withered))
d: soybean, effect on crop grade (soybean): 4 (Herbicidal ratio of 70% or higher and lower than 90%)
Herbicidal effect grade, C: Monochoria vaginalis (Monochoria vaginalis [5]): 2 (Herbicidal ratio of 20% or higher and lower than 40%)
Q (Galium spurium) herbicidal effect grade (Galium spurium; [7]): 2 (Herbicidal ratio of 20% or higher and lower than 40%)
Herbicidal effect grade, A: Echinochloa oryzacola Vasing. [6]: 5 (Herbicidal ratio of 90% or more (almost completely withered))

CON=C(C)CC1CC(O)=C(c2c(C)cc(-c3ccc(Cl)nc3)cc2C)C1=O (mixture of isomers) [6-035]
M: Abutilon theophrasti, herbicidal effect grade (Abutilon theophrasti): 0 (Herbicidal ratio of 5% or lower (almost no effect))
b: directly sowed rice plant, effect on crop grade (rice plant): 5 (Herbicidal ratio of 90% or more (almost completely withered))
H: Echinochloa crus-galli var. crus-galli, herbicidal effect grade [1, 7]: 5 (Herbicidal ratio of 90% or more (almost completely withered))
K: Lolium multiflorum Lam., herbicidal effect grade (Lolium multiflorum Lam.): 5 (Herbicidal ratio of 90% or more (almost completely withered))
I: Avena fatua, herbicidal effect grade (Avena fatua; [7]): 3 (Herbicidal ratio of 40% or higher and lower than 70%)
L: Apera spica-venti, herbicidal effect grade (Apera spica-venti): 5 (Herbicidal ratio of 90% or more (almost completely withered))
g: rapeseed, effect on crop grade (rapeseed; [7]): 0 (Herbicidal ratio of 5% or lower (almost no effect))
F: Digitaria ciliaris, herbicidal effect grade (Digitaria ciliaris; [7]): 5 (Herbicidal ratio of 90% or more (almost completely withered))
c: corn, effect on crop grade (corn [2]): 5 (Herbicidal ratio of 90% or more (almost completely withered))
Herbicidal effect grade, C: Monochoria vaginalis (Monochoria vaginalis [3]): 1 (Herbicidal ratio of 5% or higher and lower than 20%)
c: corn, effect on crop grade (corn [4]; [7]): 2 (Herbicidal ratio of 20% or higher and lower than 40%)
Herbicidal effect grade, B: Scirpus juncoides (Scirpus juncoides): 4 (Herbicidal ratio of 70% or higher and lower than 90%)
d: soybean, effect on crop grade (soybean): 2 (Herbicidal ratio of 20% or higher and lower than 40%)
Herbicidal effect grade, C: Monochoria vaginalis (Monochoria vaginalis [5]): 0 (Herbicidal ratio of 5% or lower (almost no effect))
Q: Galium spurium, herbicidal effect grade (Galium spurium; [7]): 0 (Herbicidal ratio of 5% or lower (almost no effect))
Herbicidal effect grade, A: Echinochloa oryzacola Vasing. [6]: 5 (Herbicidal ratio of 90% or more (almost completely withered))

CON=C(C)CC1CC(OC(=O)N2CCCC2)=C(c2c(C)cc(C)cc2C)C1=O (stereo not drawn) [1-150]
b: directly sowed rice plant, effect on crop (criteria 0-5) (rice plant): 5 (Herbicidal ratio of 90% or more (almost completely withered))
H: Echinochloa crus-galli var. crus-galli, herbicidal effect grade ([1]; 320 g/ha): 0 (Herbicidal ratio of 5% or lower (almost no effect))
O: Chenopodium album, herbicidal effect grade (Chenopodium album): 0 (Herbicidal ratio of 5% or lower (almost no effect))
K: Lolium multiflorum Lam., herbicidal effect (criteria 0-5) (Lolium multiflorum Lam.): 5 (Herbicidal ratio of 90% or more (almost completely withered))
I: Avena fatua, herbicidal effect grade (Avena fatua; 320 g/ha): 2 (Herbicidal ratio of 20% or higher and lower than 40%)
g: rapeseed, effect grade on crop (rapeseed): 0 (Herbicidal ratio of 5% or lower (almost no effect))
F: Digitaria ciliaris, herbicidal effect grade (Digitaria ciliaris; 320 g/ha): 5 (Herbicidal ratio of 90% or more (almost completely withered))
c: corn, effect on crop (criteria 0-5) (corn [2]): 4 (Herbicidal ratio of 70% or higher and lower than 90%)
Herbicidal effect grade, C: Monochoria vaginalis (Monochoria vaginalis [3]): 0 (Herbicidal ratio of 5% or lower (almost no effect))
c: corn, effect grade on crop (corn [4]): 0 (Herbicidal ratio of 5% or lower (almost no effect))
Herbicidal effect grade, B: Scirpus juncoides (Scirpus juncoides): 3 (Herbicidal ratio of 40% or higher and lower than 70%)
d: soybean, effect on crop (criteria 0-5) (soybean): 0 (Herbicidal ratio of 5% or lower (almost no effect))
Herbicidal effect grade, C: Monochoria vaginalis (Monochoria vaginalis [5]): 1 (Herbicidal ratio of 5% or higher and lower than 20%)
Q: Galium spurium, herbicidal effect grade (Galium spurium; 320 g/ha): 0 (Herbicidal ratio of 5% or lower (almost no effect))
Herbicidal effect grade, A: Echinochloa oryzacola Vasing. [6]: 5 (Herbicidal ratio of 90% or more (almost completely withered))
